# ChEMBL document CHEMBL4665709, “Rational Avoidance of Protease Cleavage Sites and Symmetrical End-Tagging Significantly Enhances the Stability and Therapeutic Potential of Antimicrobial Peptides” (J Med Chem, 2020)
# The source made the active and inactive calls. No cut-off for these calls is given here. Where a SMILES comes first, the peptide text is derived from it.
# Columns and labels:
# [1] = Therapeutic index, ratio of MHC for human RBC to geometric mean of peptide MIC for Streptococcus agalactiae H92; assay type: toxicity; conditions: human red blood cells (RBC), read-out: TI
# [2] = Therapeutic index, ratio of MHC for human RBC to geometric mean of peptide MIC for Enterococcus faecalis ATCC 29212; assay type: toxicity; conditions: human red blood cells (RBC), read-out: TI
# [3] = Therapeutic index, ratio of MHC for human RBC to geometric mean of peptide MIC for Staphylococcus aureus ATCC 29213; assay type: toxicity; conditions: human red blood cells (RBC), read-out: TI
# [4] = Therapeutic index, ratio of MHC for human RBC to geometric mean of peptide MIC for Salmonella typhimurium 7731; assay type: toxicity; conditions: human red blood cells (RBC), read-out: TI
# [5] = Therapeutic index, ratio of MHC for human RBC to geometric mean of peptide MIC for Escherichia coli UB1005; assay type: toxicity; conditions: human red blood cells (RBC), read-out: TI
# Cell membrane [6] = test: Disruption of membrane integrity in Escherichia coli ATCC 25922 assessed as induction of membrane rupture at 0.5 to 2 times MIC after 1 hr by SYTO-9/PI-staining based fluorescence microscopy
# Escherichia coli [7] = test: Antibacterial activity against Escherichia coli ATCC 25922 infected in C57BL/6 mouse assessed as reduction in lesion in spleen at 10 mg/kg, ip measured after 11 hrs by hematoxylin and eosin staining based assay; assay type: functional, organism-based
# Escherichia coli [8] = test: Antibacterial activity against Escherichia coli ATCC 25922 infected in C57BL/6 mouse assessed as reduction in lesion in liver at 10 mg/kg, ip measured after 11 hrs by hematoxylin and eosin staining based assay; assay type: functional, organism-based
# Staphylococcus aureus [9] = test: Antibacterial activity against Staphylococcus aureus ATCC 29213 after 18 to 24 hrs by CLSI-based broth microdilution method; assay type: functional; conditions: time hrs 18-24
# Escherichia coli [10] = test: Antibacterial activity against Escherichia coli UB1005 after 18 to 24 hrs by CLSI-based broth microdilution method; assay type: functional; conditions: time hrs 18-24
# Salmonella typhimurium [11] = test: Antibacterial activity against Salmonella typhimurium 14028 after 18 to 24 hrs by CLSI-based broth microdilution method; assay type: functional, Salmonella enterica subsp. enterica serovar Typhimurium; conditions: Salmonella enterica, time hrs 18-24
# Salmonella typhimurium [12] = test: Antibacterial activity against Salmonella typhimurium 7731 after 18 to 24 hrs by CLSI-based broth microdilution method; assay type: functional, Salmonella enterica subsp. enterica serovar Typhimurium; conditions: Salmonella enterica, time hrs 18-24
# [13] = Antibacterial activity against Salmonella pullorum 7913 after 18 to 24 hrs by CLSI-based broth microdilution method; assay type: functional, Salmonella enterica subsp. enterica serovar Pullorum; conditions: Salmonella enterica, time hrs 18-24
# Salmonella enterica = test: Antibacterial activity against Salmonella choleraesuis 503 after 18 to 24 hrs by CLSI-based broth microdilution method; assay type: functional; conditions: time hrs 18-24
# [14] = Cytotoxicity against mouse RAW264.7 cells assessed as cell viability at 128 uM by MTT assay relative to control; assay type: cell-based; conditions: read-out: Activity
# Escherichia coli [15] = test: Antibacterial activity against Escherichia coli ATCC 25922 after 18 to 24 hrs in presence of 6 uM Fe3+ by CLSI-based broth microdilution method; assay type: functional; conditions: time hrs 18-24
# Escherichia coli [16] = test: Antibacterial activity against Escherichia coli ATCC 25922 after 18 to 24 hrs in presence of 25% human serum by CLSI-based broth microdilution method; assay type: functional; conditions: time hrs 18-24
# Staphylococcus aureus [17] = test: Antibacterial activity against Staphylococcus aureus ATCC 29213 after 18 to 24 hrs in presence of 4.5 mM K+ by CLSI-based broth microdilution method; assay type: functional; conditions: time hrs 18-24
# Staphylococcus aureus [18] = test: Antibacterial activity against Staphylococcus aureus ATCC 29213 after 18 to 24 hrs in presence of 6 uM Fe3+ by CLSI-based broth microdilution method; assay type: functional; conditions: time hrs 18-24
# Staphylococcus aureus [19] = test: Antibacterial activity against Staphylococcus aureus ATCC 29213 after 18 to 24 hrs in presence of 50% human serum by CLSI-based broth microdilution method; assay type: functional; conditions: time hrs 18-24
# Escherichia coli [20] = test: Antibacterial activity against Escherichia coli ATCC 25922 measured after 18 to 24 hrs in presence of proteinase K by CLSI-based broth microdilution method; assay type: functional, organism-based; conditions: time hrs 18-24
# Staphylococcus aureus [21] = test: Antibacterial activity against Staphylococcus aureus 29213 with 0.0625-2 mg/mL trypsin for 1 hr followed by test compound addition measured after 4 to 8 hrs by CLSI-based broth microdilution method; assay type: functional, organism-based; conditions: time hrs 4-8
# Staphylococcus aureus [22] = test: Antibacterial activity against Staphylococcus aureus 29213 with 0.0625-2 mg/mL pepsin for 1 hr followed by test compound addition measured after 4 to 8 hrs by CLSI-based broth microdilution method; assay type: functional, organism-based; conditions: time hrs 4-8
# [23] = Toxicity in C57BL/6 mouse assessed as change in body weigh at 20 mg/kg, ip measured for 5 days; assay type: organism-based; conditions: in vivo, 120 h, time 5 day
# [24] = Toxicity in C57BL/6 mouse assessed as effect on blood urea nitrogen level at 10 mg/kg, ip measured after 5 days; assay type: organism-based; conditions: in vivo, 120 h, time 5 day
# [25] = Toxicity in C57BL/6 mouse assessed as effect on total bilirubin level at 10 mg/kg, ip measured after 5 days; assay type: organism-based; conditions: in vivo, 120 h, time 5 day
# [26] = Toxicity in C57BL/6 mouse assessed as effect on aspartate aminotransferase level at 20 mg/kg, ip measured after 5 days; assay type: organism-based; conditions: in vivo, 120 h, time 5 day
# Escherichia coli [27] = test: Antibacterial activity against Escherichia coli ATCC 25922 infected in C57BL/6 mouse assessed as reduction in bacterial load in spleen at 10 mg/kg, ip measured after 11 hrs (reference value: 6.02 log CFU/g); assay type: functional
# Escherichia coli [28] = test: Antibacterial activity against Escherichia coli ATCC 25922 infected in C57BL/6 mouse assessed as reduction in inflammatory cell infiltration in lung at 10 mg/kg, ip measured after 11 hrs by hematoxylin and eosin staining based assay; assay type: functional, organism-based
# Trypsin = Trypsin (Homo sapiens, UniProt P07477+P07478+P35030); test: Stability of compound assessed as trypsin (unknown origin)-mediated drug degradation after 8 hrs by RP-HPLC analysis; assay type: ADME, protein assay
# [29] = Stability of compound assessed as chymotrypsin (unknown origin)-mediated drug degradation after 8 hrs by RP-HPLC analysis; assay type: ADME; conditions: human
# [30] = Stability of compound assessed as pepsin (unknown origin)-mediated drug degradation after 8 hrs by SDS-PAGE analysis; assay type: ADME; conditions: human
# [31] = Stability of compound assessed as proteinase K (unknown origin)-mediated drug degradation after 8 hrs by SDS-PAGE analysis; assay type: ADME; conditions: human
# Lipopolysaccharide (LPS) = test: Displacement of BODIPY-TR-cadaverine from Escherichia coli O111:B4 LPS after 4 hrs by fluorescence assay
# Cell membrane [32] = test: Induction of outer membrane permeabilization in Escherichia coli ATCC 25922 after 30 mins by NPN-dye based assay
# Cell membrane [33] = test: Induction of cytoplasmic membrane depolarization in Staphylococcus aureus ATCC 29213 at 0.5 to 2 times MIC up to 1000 secs by DiSC3-5 dye-based fluorescence assay; assay type: subcellular; conditions: time sec <=1000
# Cell membrane [34] = test: Induction of morpholoical changes in membrane of Escherichia coli ATCC 25922 assessed as corrugation in bacterial membrane at 1 times MIC after 1 hr by scanning electron microscopy
# Cell membrane [35] = test: Induction of morpholoical changes in membrane of Staphylococcus aureus ATCC 29213 assessed as corrugation in bacterial membrane at 1 times MIC after 1 hr by scanning electron microscopy; assay type: subcellular
# Cell membrane [36] = test: Induction of structural changes in membrane of Escherichia coli ATCC 25922 assessed as cytoplasmic leakage at 1 times MIC after 1 hr by transmission electron microscopy
# Cell membrane [37] = test: Induction of structural changes in membrane of Staphylococcus aureus ATCC 29213 assessed as membrane damage at 1 times MIC after 1 hr by transmission electron microscopy; assay type: subcellular
compound,measurement,setting,value
CC[C@H](C)[C@H](N)C(=O)N[C@H](C(=O)N[C@H](C(=O)N[C@@H](CS)C(=O)N[C@@H](CCCNC(=N)N)C(=O)N[C@@H](CCCCN)C(=O)N1CCC[C@H]1C(=O)N[C@H](C(=O)N[C@H](C(=O)N[C@@H](CS)C(=O)N[C@@H](CCCNC(=N)N)C(=O)N[C@@H](CCCCN)C(=O)N1CCC[C@H]1C(=O)N[C@H](C(=O)N[C@H](C(=O)N[C@@H](CS)C(=O)N[C@@H](CCCNC(=N)N)C(=O)N[C@@H](CCCCN)C(=O)N1CCC[C@H]1C(=O)N[C@H](C(=O)N[C@H](C(=O)N[C@@H](CS)C(=O)N[C@@H](CCCNC(=N)N)C(=O)N[C@@H](CCCCN)C(=O)N1CCC[C@H]1C(=O)N[C@H](C(=O)N[C@H](C(=O)N[C@H](C(N)=O)[C@@H](C)CC)[C@@H](C)CC)[C@@H](C)CC)[C@@H](C)CC)[C@@H](C)CC)[C@@H](C)CC)[C@@H](C)CC)[C@@H](C)CC)[C@@H](C)CC)[C@@H](C)CC)[C@@H](C)CC (H-IIICRKPIICRKPIICRKPIICRKPIII-NH2),selectivity ratio,[1],28.5
same,selectivity ratio,[2],28.5
same,selectivity ratio,[3],28.5
same,selectivity ratio,[4],57
same,selectivity ratio,[5],57
same,Activity,Cell membrane [6],Active
same,Activity,Escherichia coli [7],Active
same,Activity,Escherichia coli [8],Active
same,MIC,Staphylococcus aureus [9],8 µM
same,MIC,Escherichia coli [10],2 µM
same,MIC,Salmonella typhimurium [11],2 µM
same,MIC,Salmonella typhimurium [12],2 µM
same,MIC,[13],4 µM
same,MIC,Salmonella enterica,2 µM
same,viability at 128 µM,[14],> 90%
same,MIC,Escherichia coli [15],2 µM
same,MIC,Escherichia coli [16],4 µM
same,MIC,Staphylococcus aureus [17],8 µM
same,MIC,Staphylococcus aureus [18],8 µM
same,MIC,Staphylococcus aureus [19],16 µM
same,Activity,Escherichia coli [20],Active
same,Activity,Staphylococcus aureus [21],Active
same,Activity,Staphylococcus aureus [22],Active
same,Activity,[23],Non-Toxic
same,Activity,[24],Non-Toxic
same,Activity,[25],Non-Toxic
same,Activity,[26],Non-Toxic
same,Activity,Escherichia coli [27],4.89 log10CFU/g
same,Activity,Escherichia coli [28],Active
same,Stabilty,Trypsin,Stable
same,Stabilty,[29],Stable
same,Stabilty,[30],Stable
same,Stabilty,[31],Stable
same,Activity,Lipopolysaccharide (LPS),Dose-dependent effect
same,Activity,Cell membrane [32],Dose-dependent effect
same,Activity,Cell membrane [33],Active
same,Activity,Cell membrane [34],Active
same,Activity,Cell membrane [35],Active
same,Activity,Cell membrane [36],Active
same,Activity,Cell membrane [37],Active
